# From BindingDB's records for patent US20240132491 (Medshine Discovery, 2024)
# Biological target: Programmed cell death 1 ligand/protein 1 (Homo sapiens, UniProt Q9NZQ7)
# Experiment: PD-L1 Binding Assay
# Method: Experimental Materials:PD1:PD-L1 TR-FRET assay kit, purchased from BPS Biosciences. Nivo multimode microplate reader (PerkinElmer)Experimental Method:PD1-Eu, dye-labeled acceptor, PD-L1-biotin, and compound to be tested were all diluted using the buffer in the kit.The compound to be tested was diluted 5-fold to the 8th concentration, i.e., from 4 μM to 0.05 nM, and the DMSO concentration was 4%. The experiment was set up in duplicate wells. 5 μL of each concentration gradient of the compound to be tested was added to a microtiter plate, wherein 5 μL of a buffer containing 4% DMSO and 5 μL of PD-L1-biotin (60 nM) was added to the Max signal well, and only 5 μL of buffer was added to the Min signal well. The plate was incubated at 25° C. for 20 minutes. After the incubation, 5 μL of diluted PD1-Eu (10 nM) and 5 μL of diluted dye-labeled acceptor were added to each well. The system was reacted at 25° C. for 90 minutes. After the reaction, the multimode microplate reader was used to read the time-resolved fluorescence analysis signal.
# Programmed cell death 1 ligand/protein 1, sequence (Q9NZQ7 whole entry): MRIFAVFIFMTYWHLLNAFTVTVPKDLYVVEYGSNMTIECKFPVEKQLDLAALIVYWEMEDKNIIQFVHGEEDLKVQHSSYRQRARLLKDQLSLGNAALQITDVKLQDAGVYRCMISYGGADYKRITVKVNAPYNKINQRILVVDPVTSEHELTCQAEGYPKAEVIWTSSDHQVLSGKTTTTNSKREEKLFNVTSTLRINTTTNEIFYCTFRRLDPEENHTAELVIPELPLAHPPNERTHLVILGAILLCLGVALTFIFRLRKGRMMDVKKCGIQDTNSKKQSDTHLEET
# Programmed cell death 1 ligand/protein 1, sequence (Q15116 whole entry, further chain): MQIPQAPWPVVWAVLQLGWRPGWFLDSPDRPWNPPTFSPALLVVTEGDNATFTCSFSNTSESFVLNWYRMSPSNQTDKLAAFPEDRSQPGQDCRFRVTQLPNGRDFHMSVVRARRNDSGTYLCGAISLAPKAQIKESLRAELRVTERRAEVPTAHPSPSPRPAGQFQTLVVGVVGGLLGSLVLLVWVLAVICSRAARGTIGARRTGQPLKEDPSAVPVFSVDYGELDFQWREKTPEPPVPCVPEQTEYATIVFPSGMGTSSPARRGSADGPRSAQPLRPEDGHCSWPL
smiles,measurement,value
"COc1nc(-c2cccc(-c3cccc4c3CCN4c3nccc4cc(CN5CC[C@@H](O)C5)cnc34)c2Cl)ccc1CNC[C@@H]1CCC(=O)N1 [US20240132491, Example 1]",IC50,1.95 nM
